Test results: article PMC7529935 (European journal of medicinal chemistry, 2020)

Assays:
[1] = system: HIV/EBOV pseudovirions (EBOV GP); assay type: cell-based, Zaire Ebolavirus
[2] = system: HIV/MARV pseudovirions (MARV GP); test: microbe, parasite or virus in culture; assay type: cell-based, Marburgvirus; settings: Human immunodeficiency virus 1, A549, 48 h, read-out: IC50 for MARV

| SMILES | antiviral activity against EBOV [1] | antiviral activity (anti-filovirus, words) [1] | cytotoxicity (A549 cells) | IC50 [2] [nM] |
| --- | --- | --- | --- | --- |
| Cc1c(Cc2ccccc2)c(=O)oc2cc(OCC(O)CNCCc3ccncc3)ccc12 (centres unmarked) [Compound 13, 3-benzyl-7-(2-hydroxy-3-((2-(pyridin-4-yl)ethyl)amino)propoxy)-4-methyl-2H-chromen-2-one] | best inhibitory activity on EBOV entry |  |  |  |
| Cc1cc(=O)oc2cc(OCC(O)CN3CCC(C(N)=O)CC3)ccc12 (centres unmarked) [Compound 19, 1-(2-hydroxy-3-((4-methyl-2-oxo-2H-chromen-7-yl)oxy)propyl)piperidine-4-carboxamide] |  | lost most of the activity |  |  |
| Cc1c(Cc2ccc(OC(F)(F)F)cc2)c(=O)oc2cc(OCC(O)CN3CCC(C(N)=O)CC3)ccc12 (centres unmarked) [Compound 32, 1-(2-hydroxy-3-((4-methyl-2-oxo-3-(4-(trifluoromethoxy)benzyl)-2H-chromen-7-yl)oxy)propyl)piperidine-4-carboxamide] | strongest antiviral activity against EBOV |  | low cytotoxicity | 1500 |
| NC(=O)C1CCN(CC(O)COc2ccc3c(C4CC4)cc(=O)oc3c2)CC1 (centres unmarked) [Compound 55, 1-(3-((4-cyclopropyl-2-oxo-2H-chromen-7-yl)oxy)-2-hydroxypropyl)piperidine-4-carboxamide] |  | lost most of the antiviral activity |  |  |
| Cc1c(Cc2ccc(OC(F)(F)F)cc2)c(=O)oc2cc(OCC(O)CNc3nccs3)ccc12 (centres unmarked) [Compound 56, 7-(2-hydroxy-3-(thiazol-2-ylamino)propoxy)-4-methyl-3-(4-(trifluoromethoxy)benzyl)-2H-chromen-2-one] |  | strong activity | low cytotoxicity |  |
